Experiments:
Type in all cases: physicochemical
[1] = Filtration properties during crystallization, observed with the naked eye; set-up: key: ⊚: very great filtration properties; ◯: good filtration properties; Δ: poor filtration properties; X: very poor filtration properties; settings: observation with the naked eye
Protocol: (§1) The crystals (I), (II) and (III) of the depsipeptide derivative (IV), thus recovered in the aforementioned manners, were examined about the filtration properties during crystallization, the specific volume and water content, by using the prior art crystal (V) for comparison.
The filtration properties during crystallization were evaluated on the following standards under observation with the naked eye.
⊚: very great filtration properties
◯: good filtration properties
Δ: poor filtration properties
X: very poor filtration properties

[2] = Water content after standing at ambient temperature to constant weight; settings: left to stand at ambient temperature until weight reached constant value
Protocol: as §1
As to the water content, additionally, each crystal was left to stand at ambient temperature until its weight reached constant value, wherein an amount of water containing in the crystal was measured in %.

[3] = Fluidity (adhesion properties) of the crystal; settings: not shown in Table 6; adhesion to machines during production

Structure (SMILES): CC(C)CC1C(=O)OC(Cc2ccc(N3CCOCC3)cc2)C(=O)N(C)C(CC(C)C)C(=O)OC(C)C(=O)CCCCN1C (stereo not shown) [Crystal (I)]
- Filtration property during crystallization [1]: ×
- Water content [2]: 3.16%

Structure (SMILES): CC(C)CC1C(=O)OC(Cc2ccc(N3CCOCC3)cc2)C(=O)N(C)C(CC(C)C)C(=O)OC(C)C(=O)CCCCN1C (stereo not shown) [Crystal (II)]
- Filtration property during crystallization [1]: ⊚
- Water content [2]: 0.98%
- Fluidity (adhesion properties) [3]: great fluidity

Structure (SMILES): CC(C)CC1C(=O)OC(Cc2ccc(N3CCOCC3)cc2)C(=O)N(C)C(CC(C)C)C(=O)OC(C)C(=O)CCCCN1C (stereo not shown) [Crystal (III)]
- Filtration property during crystallization [1]: ◯
- Water content [2]: 0.20%

Structure (SMILES): CC(C)CC1C(=O)OC(Cc2ccc(N3CCOCC3)cc2)C(=O)N(C)C(CC(C)C)C(=O)OC(C)C(=O)CCCCN1C (stereo not shown) [Prior art Crystal (V), reference compound]
- Filtration property during crystallization [1]: ×
- Water content [2]: 2.45%
- Fluidity (adhesion properties) [3]: poor fluidity

Reference: patent US6346603B1, “Crystal of depsipeptide derivative and process for producing the same” (Fujisawa Pharmaceutical Co., Ltd., priority 1997, dated 2002)
